The values that follow come from patent US9260429B2, “Pyrido[3,4-B]indoles and methods of use” (Medivation Technologies, Inc., priority 2008, dated 2016).

Assay [1] concerns the target T1, human recombinant serotonin (5-Hydroxytryptamine) 5-HT7 receptor (Homo sapiens, UniProt P34969).
T1 construct: expressed in transfected cells; host or cells: CHO cells
Briefly: Serotonin 5-HT7 radioligand binding ([3H]LSD). The note with it: 2 h; read-out: Percent Inhibition of ligand binding Serotonin (1 μM ligand concentration) 5-HT7. Here is the method:
To evaluate in radioligand binding assays the activity of compounds of the invention, human recombinant serotonin (5-Hydroxytryptamine) 5-HT7 receptor expressed in Chinese hamster ovary (CHO) cells (Roth, B. L. et al., J. Pharmacol. Exp. Ther. 268:1403, 1994; Shen, Y. et al., J. Biol. Chem. 268:18200, 1993) in a modified Tris-HCl buffer (50 mM Tris-HCl, pH 7.4, 10 mM MgCl2, 0.5 mM EDTA) was used. Compounds of invention were incubated with 5.5 nM [^3H]Lysergic acid diethylamide (LSD) for 2 hours at 25° C. Non-specific binding was estimated in the presence of […] Serotonin (5-HT). Receptor proteins were filtered and washed, the filters were then counted to determine [^3H]LSD specifically bound. Compounds were screened at 1 μM or lower, using 1% DMSO as vehicle. Biochemical assay results are presented as the percent inhibition of specific binding in Table 5.

For assay [2], the target named is T2, human recombinant serotonin (5-Hydroxytryptamine) 5-HT2A receptor (Homo sapiens, UniProt P28223).
T2 construct: expressed in transfected cells; host or cells: CHO-K1 cells
Put plainly: Serotonin 5-HT2A radioligand binding ([3H]Ketanserin). The note with it: 1 h; read-out: Percent Inhibition of ligand binding Serotonin (1 μM ligand concentration) 5-HT2A. The protocol:
To evaluate in radioligand binding assays the activity of compounds of the invention, human recombinant serotonin (5-Hydroxytryptamine) 5-HT2A receptor expressed in Chinese hamster ovary (CHO-K1) cells (Bonhaus, D. W. et al. Br. J. Pharmacol. 115:622, 1995; Saucier, C. and Albert, P. R., J. Neurochem. 68:1998, 1997) in a 50 mM Tris-HCl buffer, pH 7.4, was used. Compounds of the invention were incubated with 0.5 nM [^3H]Ketanserin for 60 minutes at 25° C. Non-specific binding was estimated in the presence of 1 μM Mianserin. Receptor proteins were filtered and washed, the filters were then counted to determine [^3H]Ketanserin specifically bound. Compounds were screened at 1 μM or lower, using 1% DMSO as vehicle. Biochemical assay results are presented as the percent inhibition of specific binding in Table 5.

In assay [3] the target is T3, human recombinant histamine H2 receptor (Homo sapiens, UniProt P25021).
T3 construct: expressed in transfected cells; host or cells: CHO-K1 cells
Briefly: Histamine H2 radioligand binding ([125I]Aminopotentidine). The following applies: 1 μM; inhibition of specific [125I]Aminopotentidine binding; read-out: Binding data (Percentage Inhibition) Histamine Binding (1 μM) H2. The protocol:
To evaluate in radioligand binding assays the activity of compounds of the invention, human recombinant histamine H2 receptor expressed in Chinese hamster ovary (CHO) K1 cells (Ruat, M., Proc. Natl. Acad. Sci. USA. 87(5):1658, 1990) in a 50 mM Phosphate buffer, pH 7.4 was used. Compounds of the invention were incubated with 0.1 nM [^125I]Aminopotentidine for 120 minutes at 25° C. Non-specific binding was estimated in the presence of 3 μM Tiotidine. Receptor proteins were filtered and washed, the filters were then counted to determine [^125I]Aminopotentidine specifically bound. Compounds were screened at 1 μM or lower, using 1% DMSO as vehicle. Biochemical assay results are presented as the percent inhibition of specific binding in Table 3.

Assay [4] addresses T4, human recombinant dopamine D2L receptor (Homo sapiens, UniProt P14416).
T4 construct: expressed in transfected cells; host or cells: CHO cells
Briefly: Dopamine D2L radioligand binding ([3H]Spiperone). The following applies: 2 h, 1 μM ligand conc.; read-out: Percent Inhibition of ligand binding Dopamine (1 μM ligand conc.) D2L. The protocol: To evaluate in radioligand binding assays the activity of compounds of the invention, human recombinant dopamine D2L receptor expressed in Chinese hamster ovary (CHO) cells (Grandy, D. K. et al. Proc. Natl. Acad. Sci. USA. 86:9762, 1989; Hayes, G. et al., Mol. Endocrinol. 6:920, 1992) in a modified Tris-HCl buffer (50 mM Tris-HCl, pH 7.4, 1.4 mM Ascorbic Acid, 0.001% BSA, 150 mM NaCl) was used. Compounds of the invention were incubated with 0.16 nM [^3H]Spiperone for 120 minutes at 25° C. Non-specific binding was estimated in the presence of […] Haloperidol. Receptor proteins were filtered and washed, the filters were then counted to determine [^3H]Spiperone specifically bound. Compounds were screened at 1 μM or lower, using 1% DMSO as vehicle. Biochemical assay results are presented as the percent inhibition of specific binding in Table 4.

In assay [5] the target is T5, human recombinant serotonin (5-Hydroxytryptamine) 5-HT2C receptor (Homo sapiens, UniProt P28335).
T5 construct: expressed in transfected cells; host or cells: CHO-K1 cells
T5 sequence (P28335 33-458): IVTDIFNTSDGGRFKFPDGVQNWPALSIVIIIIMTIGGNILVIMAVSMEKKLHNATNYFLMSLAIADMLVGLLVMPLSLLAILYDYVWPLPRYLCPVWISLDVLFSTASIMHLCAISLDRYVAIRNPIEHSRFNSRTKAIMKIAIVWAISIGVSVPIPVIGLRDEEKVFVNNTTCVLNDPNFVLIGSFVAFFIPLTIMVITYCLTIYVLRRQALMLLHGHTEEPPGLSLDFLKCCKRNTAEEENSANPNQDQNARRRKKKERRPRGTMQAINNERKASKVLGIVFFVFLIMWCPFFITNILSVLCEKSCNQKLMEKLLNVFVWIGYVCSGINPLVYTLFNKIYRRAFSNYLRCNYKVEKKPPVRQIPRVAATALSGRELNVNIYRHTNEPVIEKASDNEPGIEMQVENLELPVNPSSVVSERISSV
Put plainly: Serotonin 5-HT2C radioligand binding ([3H]Mesulergine). The note with it: 1 h; read-out: Percent Inhibition of ligand binding Serotonin (1 μM ligand concentration) 5-HT2C. The protocol: Compounds of the invention were incubated with 1 nM [^3H]Mesulergine for 60 minutes at 25° C. Non-specific binding was estimated in the presence of 1 μM Mianserin. Receptor proteins were filtered and washed, the filters were then counted to determine [^3H]Mesulergine specifically bound. […] Biochemical assay results are presented as the percent inhibition of specific binding in Table 5.

The target in assay [6] is T6, human recombinant histamine H1 receptor (Homo sapiens, UniProt P35367).
T6 construct: expressed in transfected cells; host or cells: CHO cells
Put plainly: Histamine H1 radioligand binding ([3H]Pyrilamine). The following applies: 1 μM; read-out: Binding data (Percentage Inhibition) Histamine Binding (1 μM) H1. The protocol: To evaluate in radioligand binding assays the activity of compounds of the invention, human recombinant histamine H1 receptor expressed in Chinese hamster ovary (CHO) cells (De Backer, M. D. et al., Biochem. Biophys. Res. Comm. 197(3):1601, 1993) in a modified Tris-HCl buffer (50 mM Tris-HCl, pH 7.4, 2 mM MgCl2, 100 mM NaCl, 250 mM Sucrose) was used. Compounds of the invention were incubated with 1.2 nM [^3H]Pyrilamine for 180 minutes at 25° C. Non-specific binding was estimated in the presence of 1 μM pyrilamine. Receptor proteins were filtered and washed, the filters were then counted to determine [^3H]Pyrilamine specifically bound. […] Biochemical assay results are presented as the percent inhibition of specific binding in Table 3.

The target of assay [7] is T7, human recombinant serotonin (5-Hydroxytryptamine) 5-HT6 receptor (Homo sapiens, UniProt P50406).
T7 construct: expressed in transfected cells; host or cells: human HeLa cells
Briefly: Serotonin 5-HT6 radioligand binding ([3H]LSD). The note with it: 2 h; read-out: Percent Inhibition of ligand binding Serotonin (1 μM ligand concentration) 5-HT6. The protocol: To evaluate in radioligand binding assays the activity of compounds of the invention, human recombinant serotonin (5-Hydroxytryptamine) 5-HT6 receptor expressed in human HeLa cells (Monsma, F. J. Jr. et al., Mol. Pharmacol. 43:320, 1993) in a modified Tris-HCl buffer (50 mM Tris-HCl, pH 7.4, 150 mM NaCl, 2 mM Ascorbic Acid, 0.001% BSA) was used. Compounds of the invention were incubated with 1.5 nM [3H]Lysergic acid diethylamide (LSD) for 120 minutes at 37° C. Non-specific binding was estimated in the presence of […] Serotonin (5-HT). Receptor proteins were filtered and washed, the filters were then counted to determine [3H]LSD specifically bound. Compounds were screened at 1 μM or lower, using 1% DMSO as vehicle. Biochemical assay results are presented as the percent inhibition of specific binding in Table 5.

T4 sequence (P14416 whole entry): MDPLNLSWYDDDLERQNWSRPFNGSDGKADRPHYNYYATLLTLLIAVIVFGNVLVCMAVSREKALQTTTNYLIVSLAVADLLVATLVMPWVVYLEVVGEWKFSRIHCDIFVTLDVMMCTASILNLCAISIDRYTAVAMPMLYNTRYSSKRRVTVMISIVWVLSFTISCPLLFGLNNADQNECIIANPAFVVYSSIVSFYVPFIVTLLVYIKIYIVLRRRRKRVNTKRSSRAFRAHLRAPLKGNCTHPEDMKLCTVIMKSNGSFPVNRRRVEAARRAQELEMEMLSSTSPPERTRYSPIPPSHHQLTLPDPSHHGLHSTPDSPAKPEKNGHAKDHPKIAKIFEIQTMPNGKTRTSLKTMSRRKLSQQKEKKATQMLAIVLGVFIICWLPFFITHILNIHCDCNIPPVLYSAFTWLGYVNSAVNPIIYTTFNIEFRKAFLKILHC
T1 sequence (P34969 whole entry): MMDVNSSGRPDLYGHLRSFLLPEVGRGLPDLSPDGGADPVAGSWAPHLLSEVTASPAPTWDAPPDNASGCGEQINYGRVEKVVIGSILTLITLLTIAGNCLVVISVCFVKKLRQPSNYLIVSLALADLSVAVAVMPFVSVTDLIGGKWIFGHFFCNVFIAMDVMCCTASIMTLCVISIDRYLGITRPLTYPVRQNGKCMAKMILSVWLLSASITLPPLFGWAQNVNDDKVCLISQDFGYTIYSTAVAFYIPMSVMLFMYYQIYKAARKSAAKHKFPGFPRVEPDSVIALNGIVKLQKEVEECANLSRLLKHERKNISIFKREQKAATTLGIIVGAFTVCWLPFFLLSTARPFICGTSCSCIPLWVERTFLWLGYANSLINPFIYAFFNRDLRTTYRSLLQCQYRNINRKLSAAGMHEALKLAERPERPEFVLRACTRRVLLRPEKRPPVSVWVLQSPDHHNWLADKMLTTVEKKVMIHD
T2 sequence (P28223 whole entry): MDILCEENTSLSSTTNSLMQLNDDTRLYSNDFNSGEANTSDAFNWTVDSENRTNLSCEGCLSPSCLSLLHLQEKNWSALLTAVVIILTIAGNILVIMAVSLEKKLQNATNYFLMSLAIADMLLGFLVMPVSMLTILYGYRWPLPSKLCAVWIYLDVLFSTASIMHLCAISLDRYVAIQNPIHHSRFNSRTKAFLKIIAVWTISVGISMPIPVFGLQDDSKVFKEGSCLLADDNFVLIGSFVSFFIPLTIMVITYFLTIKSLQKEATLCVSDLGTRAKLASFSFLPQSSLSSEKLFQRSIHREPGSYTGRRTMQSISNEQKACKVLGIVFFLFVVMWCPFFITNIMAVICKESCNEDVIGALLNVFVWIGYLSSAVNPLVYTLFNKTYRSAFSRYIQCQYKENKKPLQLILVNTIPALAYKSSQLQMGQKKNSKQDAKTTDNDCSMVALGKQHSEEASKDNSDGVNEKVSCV
T3 sequence (P25021 whole entry): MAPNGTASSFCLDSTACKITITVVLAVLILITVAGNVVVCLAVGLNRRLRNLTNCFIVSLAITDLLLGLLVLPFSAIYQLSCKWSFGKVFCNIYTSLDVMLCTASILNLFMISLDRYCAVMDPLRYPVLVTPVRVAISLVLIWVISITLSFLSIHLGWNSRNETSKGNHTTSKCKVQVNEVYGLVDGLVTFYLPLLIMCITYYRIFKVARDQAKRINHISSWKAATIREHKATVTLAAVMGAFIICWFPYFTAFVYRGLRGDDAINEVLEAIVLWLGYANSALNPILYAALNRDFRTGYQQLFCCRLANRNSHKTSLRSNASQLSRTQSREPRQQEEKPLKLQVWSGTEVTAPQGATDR
T7 sequence (P50406 whole entry): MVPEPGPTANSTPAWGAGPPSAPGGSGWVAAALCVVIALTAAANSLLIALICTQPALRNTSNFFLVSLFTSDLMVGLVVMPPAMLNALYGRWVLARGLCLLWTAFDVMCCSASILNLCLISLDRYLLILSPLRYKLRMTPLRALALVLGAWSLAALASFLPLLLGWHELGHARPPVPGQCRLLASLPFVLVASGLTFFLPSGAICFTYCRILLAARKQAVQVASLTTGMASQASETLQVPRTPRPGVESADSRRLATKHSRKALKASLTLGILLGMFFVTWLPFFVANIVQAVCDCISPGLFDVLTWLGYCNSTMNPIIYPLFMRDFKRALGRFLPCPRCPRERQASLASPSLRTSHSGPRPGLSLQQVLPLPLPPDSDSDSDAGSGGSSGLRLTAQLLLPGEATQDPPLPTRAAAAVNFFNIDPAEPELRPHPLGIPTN
T6 sequence (P35367 whole entry): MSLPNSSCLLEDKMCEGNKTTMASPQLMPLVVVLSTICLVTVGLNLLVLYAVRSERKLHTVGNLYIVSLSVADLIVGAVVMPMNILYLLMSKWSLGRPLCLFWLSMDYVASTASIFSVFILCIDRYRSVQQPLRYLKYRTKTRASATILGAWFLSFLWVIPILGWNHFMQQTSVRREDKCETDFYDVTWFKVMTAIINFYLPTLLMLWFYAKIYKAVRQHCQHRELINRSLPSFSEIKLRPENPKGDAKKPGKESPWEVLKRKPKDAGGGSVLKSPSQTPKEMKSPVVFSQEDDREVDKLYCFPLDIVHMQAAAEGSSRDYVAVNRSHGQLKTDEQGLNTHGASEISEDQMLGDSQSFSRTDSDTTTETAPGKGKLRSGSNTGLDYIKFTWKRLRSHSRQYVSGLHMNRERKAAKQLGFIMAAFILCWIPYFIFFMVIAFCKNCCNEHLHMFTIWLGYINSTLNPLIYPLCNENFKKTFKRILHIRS

Regarding `CCC1c2c(c3cc(Cl)ccc3n2C(=O)Cc2ccc(F)cc2)CCN1C` (stereo not drawn) [Compound 171], the inhibition at 1 µM in assay [1] came out at 13%; in assay [2], 80%; in assay [3], 17%; in assay [4], 5%; in assay [5] it was 92%; in assay [6] it was 15%. For the same compound, the inhibition at 1 µM in assay [7] is 36%.
With `C/C(=C\n1c2c(c3cc(Cl)ccc31)CCN(C)C2C)c1ccc(Cl)c(Cl)c1` (stereo not drawn) [Compound 115, 6-chloro-9-(2-(3,4-dichlorophenyl)prop-1-enyl)-1,2-dimethyl-2,3,4,9-tetrahydro-1H-pyrido[3,4-b]indole], the inhibition at 1 µM in assay [1] was 74%; in assay [2] it was 85%; in assay [3] it was 71%; in assay [4] it was 0%; in assay [5], 86%; in assay [6] it was 50%. In addition, the inhibition at 1 µM in assay [7] worked out at 40%.
For `C/C(=C\n1c2c(c3cc(C)ccc31)CCN(C)C2C)c1ccc(Cl)cc1Cl` (stereo not drawn) [Compound 178], the inhibition at 1 µM was found to be 59% in assay [1]; 97% in assay [2]; 54% in assay [3]; 3% in assay [4]; 101% in assay [5]; 44% in assay [6]. In addition, the inhibition at 1 µM in assay [7] turned out to be 25%.
As to `Cc1ccc2c(c1)c1c(n2C(=O)Cc2ccc(Cl)cc2)CN(C)CC1` [Compound 173], the inhibition at 1 µM in assay [1] turned out to be 81%; in assay [2], 95%; in assay [3], 49%; in assay [4] it was 22%; in assay [5], 90%; in assay [6] it was 12%. Besides, the inhibition at 1 µM in assay [7] turned out to be 48%.
As for `CCC1c2c(c3cc(Cl)ccc3n2/C=C(\C)c2ccc(Cl)c(Cl)c2)CCN1C` (stereo not drawn) [Compound 116, 6-chloro-9-(2-(3,4-dichlorophenyl)prop-1-enyl)-1-ethyl-2-methyl-2,3,4,9-tetrahydro-1H-pyrido[3,4-b]indole], the inhibition at 1 µM in assay [1] amounted to 51%; in assay [2], 83%; in assay [3], 50%; in assay [4] it was 0%; in assay [5], 85%; in assay [6] it was 8%. In addition, the inhibition at 1 µM in assay [7] worked out at 38%.
As for `COc1ccc(/C(C)=C/n2c3c(c4cc(Cl)ccc42)CCN(C)C3)cc1F` [Compound 122, 6-chloro-9-(2-(3-fluoro-4-methoxyphenyl)prop-1-enyl)-2-methyl-2,3,4,9-tetrahydro-1H-pyrido[3,4-b]indole], the inhibition at 1 µM in assay [1] worked out at 95%; in assay [2], 95%; in assay [3], 56%; in assay [4] it was 21%; in assay [5], 102%; in assay [6], 13%. Besides, the inhibition at 1 µM in assay [7] was 36%.
In the case of `C/C(=C/n1c2c(c3cc(C)ccc31)CCN(C)C2C)c1ccc(Cl)cc1Cl` (stereo not drawn) [Compound 169], the inhibition at 1 µM in assay [1] is 78%; in assay [2], 80%; in assay [3], 50%; in assay [4], 5%; in assay [5] it was 91%; in assay [6], 20%. Besides, the inhibition at 1 µM in assay [7] was 24%.
Take `CCC1c2c(c3cc(C)ccc3n2/C=C(\C)c2ccc(F)c(F)c2)CCN1C` (stereo not drawn) [Compound 176, (E)-9-(2-(3,4-difluorophenyl)prop-1-enyl)-1-ethyl-2,6-dimethyl-2,3,4,9-tetrahydro-1H-pyrido[3,4-b]indole]: the inhibition at 1 µM in assay [1] was 53%; in assay [2], 81%; in assay [3], 26%; in assay [4], -2%; in assay [5], 94%; in assay [6] it was 17%. In assay [7], the inhibition at 1 µM is 26%.
Consider `Cc1ccc2c(c1)c1c(n2C#Cc2ccc(Cl)cc2)CN(C)CC1` [Compound 130, 9-((4-chlorophenyl)ethynyl)-2,6-dimethyl-2,3,4,9-tetrahydro-1H-pyrido[3,4-b]indole], for which the inhibition at 1 µM is 22% in assay [1]; 91% in assay [2]; 51% in assay [3]; -3% in assay [4]; 95% in assay [5]; 5% in assay [6]. Also, in assay [7], the inhibition at 1 µM came out at 7%.
